Laboratory results as given in PubChem BioAssay (NCI).
“And” between values parts separate entries of the source, which are not always exact repeats. Equal values may be shown once.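 Briefly, cells in 96-well plates were exposed to five compound concentrations for 48 h, and endpoints were estimated by linear interpolation. Abbreviation: GI50, concentration required for 50% inhibition of growth. TGI marks complete inhibition of growth.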

How the values were obtained:
Assay in all cases: NCI anticancer screen, dose series, 48 h
[1] = tested on: M14 melanoma
[2] = tested on: PC-3 prostate
[3] = tested on: SW-620 colon
[4] = tested on: CAKI-1 renal
[5] = tested on: U251 CNS
[6] = tested on: SK-MEL-28 melanoma
[7] = tested on: NCI-H460 lung
[8] = tested on: KM12 colon
[9] = tested on: MOLT-4 leukemia
[10] = tested on: MDA-MB-435
[11] = tested on: CCRF-CEM leukemia
[12] = tested on: T-47D breast
[13] = tested on: HS 578T breast

For `O=C1C(Br)=C(c2ccccc2)O/C1=C/C(=O)c1ccc(Br)cc1`, the TGI [1] was > 100 µM, the TGI [2] was 53.3 µM and the TGI [3] was 47.3 µM. For the same compound, the TGI [4] was 35 µM, the TGI [5] was > 100 µM and the TGI [6] was > 100 µM. The TGI [7] was > 100 µM, the TGI [8] was > 100 µM and the TGI [9] was > 100 µM. The TGI [10] was > 100 µM, the TGI [11] was > 100 µM and the TGI [12] was > 100 µM. For the same compound, the TGI [13] was > 100 µM.

For `COc1ccc(-n2c(N)c(C#N)[nH]c2=O)cc1`, the TGI [1] was > 10 µM, the TGI [2] was > 10 µM and the TGI [3] was > 10 µM. The TGI [5] was > 10 µM, the TGI [6] was > 10 µM and the TGI [7] was > 10 µM. For the same compound, the TGI [8] was > 10 µM, the TGI [9] was > 10 µM and the TGI [10] was > 10 µM. For the same compound, the TGI [11] was > 10 µM, the TGI [12] was > 10 µM and the TGI [13] was > 10 µM.

In the case of `Cc1ccc(/C=N/n2c(-c3ccc(C)cc3)n[nH]c2=O)cc1`, the TGI [1] is reported as > 100 µM, the TGI [2] is reported as > 100 µM and the TGI [3] is reported as > 100 µM. The TGI [4] was > 100 µM, the TGI [5] was > 100 µM and the TGI [6] was > 100 µM. For the same compound, the TGI [7] was > 100 µM, the TGI [8] was > 100 µM and the TGI [9] was > 100 µM. For the same compound, the TGI [10] was > 100 µM, the TGI [11] was > 100 µM and the TGI [12] was > 100 µM. The TGI [13] was > 100 µM.

With `COc1cc2c(cc1OC)C(=O)N(c1ccc(O)cc1)C2=O` the TGI [1] was > 100 µM, the TGI [2] was > 100 µM and the TGI [3] was > 100 µM. For the same compound, the TGI [4] was > 100 µM, the TGI [5] was > 100 µM and the TGI [6] was > 100 µM. The TGI [7] was > 100 µM, the TGI [9] was > 100 µM and the TGI [10] was > 100 µM. The TGI [11] was > 100 µM, the TGI [12] was > 100 µM and the TGI [13] was > 100 µM.

With `C=CCC1CC(n2cc(C)c(=O)[nH]c2=O)OC1CO[Si](C)(C)C(C)(C)C` (configuration not stated) the TGI [1] was 33.5 µM, the TGI [2] was 25.1 µM and the TGI [3] was 31.9 µM. The TGI [4] was 31.8 µM, the TGI [5] was 29.6 µM and the TGI [6] was 30.4 µM. The TGI [7] was 38.9 µM, the TGI [8] was 35 µM and the TGI [10] was 28.2 µM. The TGI [11] was 29.9 µM, the TGI [12] was 26.8 µM and the TGI [13] was 29.4 µM.

With `CC(C)(C)OC(=O)NC1CC2(C=C(Br)C(=O)C(Br)=C2)OC1=O` (configuration not stated) the TGI [1] was 20.2 µM, the TGI [2] was 27.3 µM and the TGI [3] was 5.79 µM. For the same compound, the TGI [4] was 11.6 µM, the TGI [5] was 31.7 µM and the TGI [6] was 37.9 µM. The TGI [7] was 38.5 µM, the TGI [8] was 45.1 µM and the TGI [9] was 2.59 µM. For the same compound, the TGI [10] was 22.1 µM, the TGI [12] was 6.39 µM and the TGI [13] was 51.3 µM.

`COc1ccc(-n2[nH]nc(C(N)=O)c2=O)cc1` was tested, and the TGI [1] was > 100 µM, the TGI [2] was > 100 µM and the TGI [3] was > 100 µM. For the same compound, the TGI [4] was > 100 µM, the TGI [5] was > 100 µM and the TGI [6] was > 100 µM. The TGI [7] was > 100 µM, the TGI [8] was > 100 µM and the TGI [9] was > 100 µM. For the same compound, the TGI [10] was > 100 µM, the TGI [11] was > 100 µM and the TGI [12] was > 100 µM. The TGI [13] was > 100 µM.

With `CC1=NC2=Nc3nc(C)cc[n+]3CN2C=C1` the TGI [1] was > 100 µM, the TGI [2] was > 100 µM and the TGI [3] was > 100 µM. For the same compound, the TGI [4] was > 100 µM, the TGI [5] was > 100 µM and the TGI [6] was > 100 µM. For the same compound, the TGI [7] was > 100 µM, the TGI [10] was > 100 µM and the TGI [12] was > 100 µM. For the same compound, the TGI [13] was > 100 µM.

In the case of `COC(=O)C1Cc2cc3c(cc2C1=O)CCCC3` (configuration not stated), the TGI [1] is reported as > 100 µM, the TGI [2] is reported as > 100 µM and the TGI [3] is reported as > 100 µM. For the same compound, the TGI [4] was > 100 µM, the TGI [5] was > 100 µM and the TGI [6] was > 100 µM. The TGI [7] was > 100 µM, the TGI [8] was > 100 µM and the TGI [9] was > 100 µM. The TGI [10] was > 100 µM, the TGI [11] was > 100 µM and the TGI [12] was > 100 µM. The TGI [13] was > 100 µM.

With `CC(NC(=O)NC(C)(C)C)NC(=O)C(N)CC(=O)O` (configuration not stated) the TGI [1] was > 100 µM, the TGI [2] was > 100 µM and the TGI [3] was > 100 µM. The TGI [4] was > 100 µM, the TGI [5] was > 100 µM and the TGI [6] was > 100 µM. For the same compound, the TGI [7] was > 100 µM, the TGI [8] was > 100 µM and the TGI [9] was > 100 µM. For the same compound, the TGI [10] was > 100 µM, the TGI [11] was > 100 µM and the TGI [12] was > 100 µM. The TGI [13] was > 100 µM.

Work on `CO/N=C(/C)c1cccc(Nc2nc3ccccc3c3[nH]c4ccccc4c23)c1` yielded a TGI [1] of 21.1 µM, a TGI [2] of 22.3 µM and a TGI [3] of 27.5 µM. The TGI [4] was 24.2 µM, the TGI [5] was 30.9 µM and the TGI [7] was 11.3 µM. For the same compound, the TGI [8] was 14.2 µM, the TGI [9] was 27.2 µM and the TGI [10] was 20.6 µM. It also gave a TGI [12] of 6.9 µM and a TGI [13] of 35.8 µM.

For `Cc1ccc2c(c1)C(=O)c1nc(C)ccc1C2=O`, the TGI [1] was > 100 µM, the TGI [2] was > 100 µM and the TGI [3] was > 100 µM. The TGI [4] was 76.9 µM, the TGI [5] was > 100 µM and the TGI [6] was > 100 µM. The TGI [8] was > 100 µM, the TGI [9] was > 100 µM and the TGI [10] was 44 µM. For the same compound, the TGI [11] was > 100 µM, the TGI [12] was > 100 µM and the TGI [13] was > 100 µM.

`CC(=N\N)/C(C)=N/N=C(C)/C(C)=N/N` was tested, and the TGI [1] was > 100 µM, the TGI [2] was > 100 µM and the TGI [3] was > 100 µM. The TGI [4] was > 100 µM, the TGI [5] was > 100 µM and the TGI [6] was > 100 µM. The TGI [7] was > 100 µM, the TGI [8] was > 100 µM and the TGI [10] was > 100 µM. The TGI [11] was > 100 µM, the TGI [12] was > 100 µM and the TGI [13] was > 100 µM.

Work on `c1ccc2c(c1)c1c(n2CCOCCN2CCCC2)CCCC1` yielded a TGI [1] of 29.5 µM, a TGI [2] of 66 µM and a TGI [3] of 32.1 µM. For the same compound, the TGI [4] was 96.9 µM, the TGI [5] was 25.8 µM and the TGI [6] was 29.4 µM. For the same compound, the TGI [7] was 30.5 µM, the TGI [9] was 34.3 µM and the TGI [10] was 33.8 µM. It also gave a TGI [11] of 51 µM, a TGI [12] of 61.9 µM and a TGI [13] of 45.3 µM.

`Cc1ccccc1OC(C)C(=O)NN1C(=O)CSC1c1ccc(Cl)cc1` (configuration not stated) was tested, and the TGI [1] was > 100 µM, the TGI [2] was > 100 µM and the TGI [3] was > 81.2 µM. For the same compound, the TGI [4] was > 100 µM, the TGI [5] was > 93.4 µM and the TGI [6] was > 100 µM. The TGI [7] was > 56.8 µM, the TGI [8] was > 100 µM and the TGI [9] was > 59.7 µM. The TGI [10] was > 100 µM, the TGI [12] was > 100 µM and the TGI [13] was > 100 µM.

For `O=C1c2ccccc2C(=O)c2cc(N=Nc3c(O)ccc4ccccc34)ccc21`, the TGI [1] was > 100 µM, the TGI [2] was > 100 µM and the TGI [3] was > 100 µM. The TGI [4] was > 100 µM, the TGI [5] was > 100 µM and the TGI [6] was > 100 µM. For the same compound, the TGI [8] was > 100 µM, the TGI [9] was > 100 µM and the TGI [10] was > 100 µM. The TGI [11] was > 100 µM, the TGI [12] was > 100 µM and the TGI [13] was > 100 µM.

With `CN(Cc1cnc2nc(N)nc(N)c2n1)c1ccc(C(=O)N[C@@H](CCC(=O)O)C(=O)O)cc1` the TGI [1] was 240 µM and > 250 µM, the TGI [2] was > 250 µM and the TGI [3] was 221 µM and > 250 µM. For the same compound, the TGI [4] was 200 µM and > 250 µM, the TGI [5] was > 250 µM and the GI50 [6] was 3.27 µM. The TGI [6] was > 250 µM, the GI50 [7] was 0.00707 µM and the TGI [7] was > 245 µM. The TGI [8] was 239 µM and > 250 µM, the GI50 [9] was 0.0278 µM and the TGI [9] was 159 µM. For the same compound, the GI50 [10] was 0.0672 µM and 0.0441 µM, the TGI [10] was > 250 µM and the TGI [12] was > 250 µM. For the same compound, the TGI [13] was > 250 µM.

With `Cc1ccc(SC2C(=O)C3CC(OCc4ccccc4)C2(C)C3(C)C)cc1` (configuration not stated) the TGI [1] was > 100 µM, the TGI [2] was > 100 µM and the TGI [3] was > 100 µM. For the same compound, the TGI [5] was > 100 µM, the TGI [6] was > 100 µM and the TGI [7] was > 100 µM. For the same compound, the TGI [8] was > 100 µM, the TGI [9] was > 100 µM and the TGI [10] was > 100 µM. The TGI [11] was > 100 µM, the TGI [12] was > 100 µM and the TGI [13] was > 100 µM.
